These results are taken from patent US20260217706A1, “HETEROCYCLIC COMPOUNDS, PREPARATION METHOD THEREFOR AND USE THEREOF” (GUANGZHOU YUFAN NANTU BIOTECHNOLOGIES CO., LTD, priority 2023, published 2026).

A value given as a limit tells only on which side of the number the result lay.

Broadly, the Ki is a dissociation constant, usually derived from enzyme kinetics or from competition with a known ligand.

CBL-B protein, sequence (Q13191 whole entry): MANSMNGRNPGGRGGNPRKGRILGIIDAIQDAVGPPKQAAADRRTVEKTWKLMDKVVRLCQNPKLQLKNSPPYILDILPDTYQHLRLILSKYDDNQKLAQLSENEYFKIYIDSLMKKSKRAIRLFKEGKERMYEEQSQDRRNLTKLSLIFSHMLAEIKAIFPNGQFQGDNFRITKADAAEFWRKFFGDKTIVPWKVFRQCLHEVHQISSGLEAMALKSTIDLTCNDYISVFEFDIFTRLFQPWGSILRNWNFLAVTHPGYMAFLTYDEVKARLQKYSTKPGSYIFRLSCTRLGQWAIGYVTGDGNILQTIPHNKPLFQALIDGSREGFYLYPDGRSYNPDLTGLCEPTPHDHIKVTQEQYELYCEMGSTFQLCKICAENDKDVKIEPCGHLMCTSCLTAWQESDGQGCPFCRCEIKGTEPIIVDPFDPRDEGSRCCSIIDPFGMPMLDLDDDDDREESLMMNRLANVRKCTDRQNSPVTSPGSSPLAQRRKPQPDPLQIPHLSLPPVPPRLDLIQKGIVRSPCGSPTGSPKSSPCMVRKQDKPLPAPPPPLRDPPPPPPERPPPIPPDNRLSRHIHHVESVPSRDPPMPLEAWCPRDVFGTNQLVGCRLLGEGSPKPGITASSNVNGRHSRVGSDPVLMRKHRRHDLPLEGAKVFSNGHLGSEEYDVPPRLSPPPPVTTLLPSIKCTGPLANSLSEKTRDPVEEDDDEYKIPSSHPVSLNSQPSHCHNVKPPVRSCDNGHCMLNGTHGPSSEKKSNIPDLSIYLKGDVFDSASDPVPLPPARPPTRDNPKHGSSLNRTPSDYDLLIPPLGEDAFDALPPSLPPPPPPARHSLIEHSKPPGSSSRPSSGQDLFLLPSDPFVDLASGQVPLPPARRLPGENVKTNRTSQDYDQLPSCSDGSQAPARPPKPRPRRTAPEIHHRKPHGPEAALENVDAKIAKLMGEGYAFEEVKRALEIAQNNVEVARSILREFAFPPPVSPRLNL

In the test the target is CBL-B protein (Homo sapiens, UniProt Q13191). Nature of the test: CBL-B binding experiment (Streptavidin-Tb cryptate / Ligand L1 displacement). The note with it: 8 nM CBL-B protein, 25° C., 60 minutes; Ki=Relative IC50/2. How it is done:
The reaction system mainly includes 1× buffer, 20 mM HEPES pH 7.5, 150 mM NaCl, 0.01% Triton X-100, 0.5 mM TCEP, and 0.1% ug/ml BSA. The compound is continuously diluted with DMSO for 10 concentration points, and 150 nL is transferred to the experimental plate. The experimental reaction begins after adding 8 nM of CBL-B protein and the reaction is carried out at 25° C. for 60 minutes. […] After an additional 60 minutes of incubation at room temperature, the experimental plate is read using an EnVision plate. The luminescence signal values were converted to percentage inhibition rates. Inhibition %=(Sample value−Maximum value)/(Minimum value−Maximum value)×100. The minimum value refers to the measured value in the wells without CBL-B protein but with DMSO and Ligand, while the maximum value refers to the measured value in the wells with DMSO, CBL-B protein, and Ligand. The IC50 values are calculated by XLFit (version 5.3.1.3) in Excel. Equation: Y=Bottom+(Top−Bottom)/(1+(IC50/X)^HillSlope); Ki=Relative IC50/2.
Take `C[C@H]1CCCN(Cc2cc3ccn(-c4cccc(C5(Cc6nncn6C)COC5)c4)c(=O)c3[nH]2)C1` [Compound T001, (S)-6-(3-(3-((4-methyl-4H-1,2,4-triazol-3-yl)methyl)oxetan-3-yl)phenyl)-2-((3-methylpiperidin-1-yl)methyl)-1,6-dihydro-7H-pyrrolo[2,3-c]pyridin-7-one]: the Ki was less than 50 nM.

Regarding `C=Cc1cn(-c2cccc([C@]3(c4nncn4C)C[C@@H](C)C3)c2)c(=O)c2[nH]c(CN3CCC[C@H](C)C3)cc12` [Compound T004, 6-(3-((1s,3R)-3-methyl-1-(4-methyl-4H-1,2,4-triazol-3-yl)cyclobutyl)phenyl)-2-(((S)-3-methylpiperidin-1-yl)methyl)-4-vinyl-1,6-dihydro-7H-pyrrolo[2,3-c]pyridin-7-one], the Ki was less than 50 nM.

Take `C[C@H]1CCN(Cc2cc3c(C(F)(F)F)cn(-c4cccc(C5(c6nncn6C)CCC5)c4)c(=O)c3[nH]2)CC1(F)F` [Compound T116, (S)-2-((3,3-difluoro-4-methylpiperidin-1-yl)methyl)-6-(3-(1-(4-methyl-4H-1,2,4-triazol-3-yl)cyclobutyl)phenyl)-4-(trifluoromethyl)-1,6-dihydro-7H-pyrrolo[2,3-c]pyridin-7-one]: the inhibitory constant (Ki) lay in the range of 50 to 100 nM.

On to `C[C@H]1CCCN(Cc2cc3c(C4CC4)cn(-c4cccc([C@]5(Cc6nncn6C)C[C@@H](C)C5)c4)c(=O)c3[nH]2)C1` [Compound T036, 4-cyclopropyl-6-(3-((1r,3S)-3-methyl-1-((4-methyl-4H-1,2,4-triazol-3-yl)methyl)cyclobutyl)phenyl)-2-(((S)-3-methylpiperidin-1-yl)methyl)-1,6-dihydro-7H-pyrrolo[2,3-c]pyridin-7-one], for which the Ki was 50 to 100 nM.

For the compound `C[C@@H](NCc1cc2c(C(F)(F)F)cn(-c3cccc(C4(c5nncn5C)CCC4)c3)c(=O)c2[nH]1)C(C)(C)C` (racemic) [Compound T044, 6-[3-[1-(4-methyl-1,2,4-triazol-3-yl)cyclobutyl]phenyl]-2-[[[rac-(1R)-1,2,2-trimethylpropyl]amino]methyl]-4-(trifluoromethyl)-1H-pyrrolo[2,3-c]pyridin-7-one], the Ki is less than 50 nM.

Consider `Cn1cnnc1CC1(c2cccc(-n3cc(C4CC4)c4cc(CN5CCCCC5)[nH]c4c3=O)c2)COC1` [Compound T006, 4-cyclopropyl-6-[3-[3-[(4-methyl-1,2,4-triazol-3-yl)methyl]oxetan-3-yl]phenyl]-2-(1-piperidylmethyl)-1H-pyrrolo[2,3-c]pyridin-7-one], for which the inhibition constant (Ki) was less than 50 nM.

`CO[C@H]1CCN(Cc2cc3c(C(F)(F)F)cn(-c4cccc(C5(c6nncn6C)CCC5)c4)c(=O)c3[nH]2)C[C@H]1F` [Compound T108, 2-(((3R,4S)-3-fluoro-4-methoxypiperidin-1-yl)methyl)-6-(3-(1-(4-methyl-4H-1,2,4-triazol-3-yl)cyclobutyl)phenyl)-4-(trifluoromethyl)-1,6-dihydro-7H-pyrrolo[2,3-c]pyridin-7-one] had a Ki of less than 50 nM.

As to `COCC1(NCc2cc3c(C(F)(F)F)cn(-c4cccc([C@]5(c6nncn6C)C[C@H](OC)C5)c4)c(=O)c3[nH]2)CC1` [Compound T099, 6-(3-((1r,3r)-3-methoxy-1-(4-methyl-4H-1,2,4-triazol-3-yl)cyclobutyl)phenyl)-2-(((1-(methoxymethyl)cyclopropyl)amino)methyl)-4-(trifluoromethyl)-1,6-dihydro-7H-pyrrolo[2,3-c]pyridin-7-one], the Ki is less than 50 nM.

As for `C[C@H]1CCCN(Cc2cc3c(C(F)(F)F)cn(-c4cccc(-c5ccccc5-c5nncn5C)c4)c(=O)c3[nH]2)C1` [Compound T076, 2-[[(3S)-3-methyl-1-piperidyl]methyl]-6-[3-[2-(4-methyl-1,2,4-triazol-3-yl)phenyl]phenyl]-4-(trifluoromethyl)-1H-pyrrolo[2,3-c]pyridin-7-one], the Ki was less than 50 nM.

Regarding `Cn1cnnc1C1(c2cccc(-n3cc(C(F)(F)F)c4cc(CN5CCCC(C(F)F)C5)[nH]c4c3=O)c2)CCC1` (racemic) [Compound T113, 6-[3-[1-(4-methyl-1,2,4-triazol-3-yl)cyclobutyl]phenyl]-2-[[rac-(3R)-3-(difluoromethyl)-1-piperidyl]methyl]-4-(trifluoromethyl)-1H-pyrrolo[2,3-c]pyridin-7-one], the inhibition constant (Ki) is less than 50 nM.

`CN(Cc1cc2c(C(F)(F)F)cn(-c3cccc(C4(c5nncn5C)CCC4)c3)c(=O)c2[nH]1)CC(F)(F)F` [Compound T057, 2-((methyl(2,2,2-trifluoroethyl)amino)methyl)-6-(3-(1-(4-methyl-4H-1,2,4-triazol-3-yl)cyclobutyl)phenyl)-4-(trifluoromethyl)-1,6-dihydro-7H-pyrrolo[2,3-c]pyridin-7-one]: the inhibition constant (Ki) was less than 50 nM.

`CO[C@H]1C[C@](c2cccc(-n3cc(C(F)(F)F)c4cc(CN5CCCC6(CC6)C5)[nH]c4c3=O)c2)(c2nncn2C)C1` [Compound T148, 2-((5-azaspiro[2.5]octan-5-yl)methyl)-6-(3-((1r,3r)-3-methoxy-1-(4-methyl-4H-1,2,4-triazol-3-yl)cyclobutyl)phenyl)-4-(trifluoromethyl)-1,6-dihydro-7H-pyrrolo[2,3-c]pyridin-7-one] returned a Ki of less than 50 nM.

In turn, `C[C@H]1CCCN(Cc2cc3c(C(F)(F)F)cn(-c4ccc([C@]5(c6nncn6C)C[C@H](C)C5)s4)c(=O)c3[nH]2)C1` [Compound T074, 6-(5-((1s,3R)-3-methyl-1-(4-methyl-4H-1,2,4-triazol-3-yl)cyclobutyl)thiophen-2-yl)-2-(((S)-3-methylpiperidin-1-yl)methyl)-4-(trifluoromethyl)-1,6-dihydro-7H-pyrrolo[2,3-c]pyridin-7-one] yielded a Ki of less than 50 nM.

In turn, `Cn1cnnc1C1(c2cccc(-n3cc(C(F)(F)F)c4cc(CN5CCC[C@](C)(O)C5)[nH]c4c3=O)c2)CCC1` [Compound T064, (S)-2-((3-hydroxy-3-methylpiperidin-1-yl)methyl)-6-(3-(1-(4-methyl-4H-1,2,4-triazol-3-yl)cyclobutyl)phenyl)-4-(trifluoromethyl)-1,6-dihydro-7H-pyrrolo[2,3-c]pyridin-7-one] registered an inhibition constant Ki of less than 50 nM.

For `CC(C)CN(Cc1cc2c(C(F)(F)F)cn(-c3cccc(C4(c5nncn5C)CCC4)c3)c(=O)c2[nH]1)CC(C)C` [Compound T098, 2-[(diisobutylamino)methyl]-6-[3-[1-(4-methyl-1,2,4-triazol-3-yl)cyclobutyl]phenyl]-4-(trifluoromethyl)-1H-pyrrolo[2,3-c]pyridin-7-one], the inhibitory constant (Ki) is less than 50 nM.

`CC1CC(c2cc(C(N)=O)cc(-n3cc(C(F)(F)F)c4cc(CN5CCC[C@H](C)C5)[nH]c4c3=O)c2)(c2nncn2C)C1` (stereo partly drawn) [Compound T127, 3-[3-methyl-1-(4-methyl-1,2,4-triazol-3-yl)cyclobutyl]-5-[2-[[(3S)-3-methyl-1-piperidyl]methyl]-7-oxo-4-(trifluoromethyl)-1H-pyrrolo[2,3-c]pyridin-6-yl]benzamide] had an inhibition constant Ki of less than 50 nM.

The compound `CO[C@H]1C[C@](c2cccc(-n3cc(C(F)(F)F)c4cc(CN5CC6CCC(C6)C5)[nH]c4c3=O)c2)(c2nncn2C)C1` [Compound T146, 2-((3-azabicyclo[3.2.1]octan-3-yl)methyl)-6-(3-((1r,3r)-3-methoxy-1-(4-methyl-4H-1,2,4-triazol-3-yl)cyclobutyl)phenyl)-4-(trifluoromethyl)-1,6-dihydro-7H-pyrrolo[2,3-c]pyridin-7-one] returned an inhibition constant Ki of less than 50 nM.

Compound `Cn1cnnc1C1(c2cccc(-n3cc(C(F)(F)F)c4cc(CN5CCC6(CC5)CC6)[nH]c4c3=O)c2)CCC1` [Compound T051, 2-(6-azaspiro[2.5]octan-6-ylmethyl)-6-[3-[1-(4-methyl-1,2,4-triazol-3-yl)cyclobutyl]phenyl]-4-(trifluoromethyl)-1H-pyrrolo[2,3-c]pyridin-7-one] came in with a Ki of less than 50 nM.

Turning to `CCN(Cc1cc2c(C(F)(F)F)cn(-c3cccc([C@]4(c5nncn5C)C[C@H](OC)C4)c3)c(=O)c2[nH]1)CC(C)C` [Compound T150, 2-((ethyl(isobutyl)amino)methyl)-6-(3-((1r,3r)-3-methoxy-1-(4-methyl-4H-1,2,4-triazol-3-yl)cyclobutyl)phenyl)-4-(trifluoromethyl)-1,6-dihydro-7H-pyrrolo[2,3-c]pyridin-7-one], the Ki is less than 50 nM.

Take `CO[C@H]1C[C@](c2cccc(-n3cc(C(F)(F)F)c4cc(CN5CC6CC6C5)[nH]c4c3=O)c2)(c2nncn2C)C1` (stereo partly shown) [Compound T144, 2-((3-azabicyclo[3.1.0]hexan-3-yl)methyl)-6-(3-((1r,3r)-3-methoxy-1-(4-methyl-4H-1,2,4-triazol-3-yl)cyclobutyl)phenyl)-4-(trifluoromethyl)-1,6-dihydro-7H-pyrrolo[2,3-c]pyridin-7-one]: the inhibition constant (Ki) is less than 50 nM.

Take `Cn1cnnc1C1(c2cccc(-n3cc(C(F)(F)F)c4cc(CN5CC[C@@H](O)C5)[nH]c4c3=O)c2)CCC1` [Compound T015, 2-[[(3R)-3-hydroxypyrrolidin-1-yl]methyl]-6-[3-[1-(4-methyl-1,2,4-triazol-3-yl)cyclobutyl]phenyl]-4-(trifluoromethyl)-1H-pyrrolo[2,3-c]pyridin-7-one]: the inhibition constant Ki was less than 50 nM.

Take `CCN(Cc1cc2c(C(F)(F)F)cn(-c3cccc([C@]4(c5nncn5C)C[C@H](OC)C4)c3)c(=O)c2[nH]1)C(C)C` [Compound T193]: the Ki is less than 50 nM.
